# Reference: US9328104B2, “Selective androgen receptor modulators” (Pfizer Inc., priority 2012, dated 2016)
# Molecular target: T1, full length human Androgen Receptor (AR) (Homo sapiens, UniProt P10275)
# T1 construct: transiently transfected in T225 cm^2 flasks with a full length human Androgen Receptor (AR) cDNA; expressed in transfected cells; host or cells: CV-1 cells (ATCC CCL-70), transiently transfected with AR cDNA in pcDNA3 and ARE-luciferase in pGL3
# T1 sequence (P10275 1-920): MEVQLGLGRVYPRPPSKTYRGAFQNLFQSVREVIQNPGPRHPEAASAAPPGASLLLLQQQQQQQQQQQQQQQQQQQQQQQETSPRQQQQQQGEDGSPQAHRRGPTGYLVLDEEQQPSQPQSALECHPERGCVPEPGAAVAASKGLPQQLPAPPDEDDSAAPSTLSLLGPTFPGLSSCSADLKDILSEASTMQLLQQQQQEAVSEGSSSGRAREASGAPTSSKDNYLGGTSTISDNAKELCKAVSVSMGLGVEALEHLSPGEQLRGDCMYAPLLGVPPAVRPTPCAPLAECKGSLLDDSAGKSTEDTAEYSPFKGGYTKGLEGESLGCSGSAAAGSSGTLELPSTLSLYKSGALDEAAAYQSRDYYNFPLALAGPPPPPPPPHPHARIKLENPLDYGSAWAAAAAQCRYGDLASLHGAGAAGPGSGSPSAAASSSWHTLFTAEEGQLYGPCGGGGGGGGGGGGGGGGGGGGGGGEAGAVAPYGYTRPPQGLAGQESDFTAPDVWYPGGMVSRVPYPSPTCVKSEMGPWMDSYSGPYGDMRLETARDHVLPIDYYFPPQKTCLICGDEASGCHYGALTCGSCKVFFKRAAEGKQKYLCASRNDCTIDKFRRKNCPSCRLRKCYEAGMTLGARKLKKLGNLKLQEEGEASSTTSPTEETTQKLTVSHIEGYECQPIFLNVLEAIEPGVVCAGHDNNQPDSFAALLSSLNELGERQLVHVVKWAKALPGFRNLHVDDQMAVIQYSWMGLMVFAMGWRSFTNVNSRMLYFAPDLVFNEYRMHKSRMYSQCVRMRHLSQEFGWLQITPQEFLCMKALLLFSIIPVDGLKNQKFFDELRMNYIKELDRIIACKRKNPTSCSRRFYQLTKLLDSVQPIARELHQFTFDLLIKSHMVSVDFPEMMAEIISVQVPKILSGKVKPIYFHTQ
# Experiment: Androgen Receptor-Mediated Transcriptional Assay (ARE-luciferase reporter in transiently transfected CV-1 cells)
# Assay type: cell-based
# Conditions: not given
# Procedure: Androgen Receptor-Mediated Transcriptional Assay Summary
# CV-1 cells (American Tissue Culture Collection cat# CCL-70) were expanded in Growth Media and transiently transfected in T225 cm^2 flasks with a full length human Androgen Receptor (AR) cDNA in the pcDNA3 expression vector and a human Androgen Response Element (ARE)-luciferase cDNA in the pGL3 vector (both from Invitrogen). DNA (μg) and Lipofectamine (μl) at a ratio of 1:3 were incubated with the cells in a total volume of 55 mL Basal Media for 4 hours. Cells were harvested by trypsinization and frozen back (−150° C. cryomed) at a concentration of 4.3 million cells/mL.
# On the day of the assay, frozen cells were thawed and re-suspended in Re-suspension Media and plated at 40,000 cells/well (in 100 μL volume) in 96 well white plates and were incubated for at least 4 h at 37° C., 5% CO2. After incubation, cells were treated with the compounds to be screened. 10 mM stocks of the compounds were serially diluted 1:10 in 100% DMSO followed by an additional 1:100 dilution in Assay Media. These dilution series were added to the cell plates resulting in a further 1:10 dilution and a final % DMSO of 0.1%. The vehicle control wells also contained this dilution of DMSO and the positive control wells contained […] (DHT) as an AR agonist at final concentration of 0.3 nM in 0.1% DMSO. Cells were incubated for 16-18 hours at 37° C. and 5% CO2. Then the culture media was removed from and the cells were lysed in 20 μL of cell lysis reagent for 5 minutes at room temperature. 50 μL of luciferase reagent was added to each well and luminescence, over 5 seconds, was measured.
# EC50 (half maximal effective concentration) was calculated from concentration series plots which generated sigmoidal curves. Xlfit software was used to plot the best fit of the % effect vs concentration and to calculate the EC50.
# Reagents and Materials used in the Androgen Receptor-Mediated Transcriptional Assay include the following: • Growth Media—DMEM/high glucose—10% FBS: 500 ml phenol red DMEM/high glucose (Gibco, Grand Island N.Y., cat #10569-010), 10% non heat-inactivated Fetal Bovine Serum (FBS) (Atlanta Biologicals, Norcross Ga., cat #S-12450), 1% Nonessential Amino Acids (Gibco, cat #11140-050), 1% Penicillin-Streptomycin (Gibco, cat #15140-122) • Basal Media—phenol red free DMEM/high glucose (Gibco, cat #31053-028)+1% Na Pyruvate (Gibco, cat #11360-070), 1% Nonessential Amino Acids (Gibco, cat #11140-050), 1% GlutaMAX-I (Gibco, cat #35050-061) • Re-suspension Media—basal media+1% Penicillin-Streptomycin (Gibco, cat #15140-122) • Assay Media—basal media+5% charcoal stripped FBS (HyClone, Logan Utah, Cat #SH30068)+1% Penicillin-Streptomycin (Gibco, cat #15140-122) • Cell Lysis Reagent—Promega, Cat #PAE1531 • Luciferase Reagent—Promega, Cat #PAE1483
row,Compound,EC50 [nM]
1,"N#Cc1nccc2cc(N3CCC[C@H]3[C@@H](O)C(F)(F)F)ccc12 (single isomer, unassigned) [Compound 37]",9.1
2,"N#Cc1nccc2cc(N3CCCC[C@@H]3[C@H](O)C(F)(F)F)ccc12 (single isomer, unassigned) [Compound 29]",0.02
3,"N#Cc1nccc2cc(N3CCC[C@@H]3[C@H](O)C(F)(F)F)ccc12 (single isomer, unassigned) [Compound 35]",7.4
4,"C[C@H]([C@H](O)C(F)(F)F)N(C)c1ccc2c(C#N)nccc2c1 (single isomer, unassigned) [Compound 27]",12.9
5,"N#Cc1nccc2cc(N3C(=O)CC[C@@H]3[C@H](O)C(F)(F)F)ccc12 (single isomer, unassigned) [Compound 32]",84.3
6,"C[C@H]1CNS(=O)(=O)N1c1ccc2c(C#N)cccc2c1 (single isomer, unassigned) [Compound 9]",4
7,"C[C@@H]1CC[C@H]([C@@H](O)C(F)(F)F)N1c1ccc2c(C#N)nccc2c1 [Compound 30, 6-{(2R,5R)-2-methyl-5-[(1R)-2,2,2-trifluoro-1-hydroxyethyl]pyrrolidin-1-yl}isoquinoline-1-carbonitrile]",0.1
8,"C[C@@H](Nc1ccc2c(C#N)nccc2c1)[C@H](O)C(F)(F)F [Compound 23, 6-{[(2R,3S)-4,4,4-trifluoro-3-hydroxybutan-2-yl]amino}isoquinoline-1-carbonitrile]",5.1
9,"CCN1C[C@@H](C)CN(c2ccc3c(C#N)nccc3c2)S1(=O)=O (single isomer, unassigned) [Compound 16]",262
10,"N#Cc1nccc2cc(N3CC4(CC4)CNS3(=O)=O)ccc12 [Compound 14, 6-(6,6-dioxido-6-thia-5,7-diazaspiro[2.5]oct-5-yl)isoquinoline-1-carbonitrile]",22
11,"N#Cc1nccc2cc(N3C(=O)CC[C@H]3[C@H](O)C(F)(F)F)ccc12 (single isomer, unassigned) [Compound 33]",231
12,"CC[C@H]1CNS(=O)(=O)N1c1ccc2c(C#N)nccc2c1 (single isomer, unassigned) [Compound 2]",18
13,"CC1(C)CNS(=O)(=O)N(c2ccc3c(C#N)nccc3c2)C1 [Compound 13, 6-(4,4-dimethyl-1,1-dioxido-1,2,6-thiadiazinan-2-yl)isoquinoline-1-carbonitrile]",0.7
14,"N#Cc1nccc2cc(N3CCC[C@H]3[C@H](O)C(F)(F)F)ccc12 (single isomer, unassigned) [Compound 36]",120
15,"C[C@H]1CNS(=O)(=O)N1c1ccc2c(C#N)nccc2c1 [Compound 1, 6-[(3S)-3-methyl-1,1-dioxido-1,2,5-thiadiazolidin-2-yl]isoquinoline-1-carbonitrile]",15
16,"N#Cc1nccc2cc(N3CCC[C@@H]3[C@@H](O)C(F)(F)F)ccc12 (single isomer, unassigned) [Compound 34]",0.1
17,"N#Cc1nccc2cc(N3CCCC[C@@H]3[C@@H](O)C(F)(F)F)ccc12 (single isomer, unassigned) [Compound 28]",61.5
18,"C[C@H]1CC[C@@H]([C@H](O)C(F)(F)F)N1c1ccc2c(C#N)nccc2c1 (single isomer, unassigned) [Compound 38]",187
19,"C[C@H]([C@@H](O)C(F)(F)F)N(C)c1ccc2c(C#N)nccc2c1 (single isomer, unassigned) [Compound 26]",0.1

# Same assay, conditions: CV-1 cells transfected with human AR and ARE-luciferase; 16-18 hours incubation; luminescence; read-out: EC50 Values for Compounds 1-22 from Androgen Receptor-Mediated Transcriptional Assay
row,Compound,EC50 [nM]
1,"C[C@@H]1CNS(=O)(=O)N(c2ccc3c(C#N)nccc3c2)C1 [Compound 10, 6-[(4R)-4-methyl-1,1-dioxido-1,2,6-thiadiazinan-2-yl]isoquinoline-1-carbonitrile]",0.4
2,"N#Cc1nccc2cc(N3[C@H](c4cccc(C(F)(F)F)c4)CNS3(=O)=O)ccc12 (single isomer, unassigned) [Compound 6]",10
3,C[C@H]1CN(C)S(=O)(=O)N1c1ccc2c(C#N)nccc2c1 [Compound 5],5
4,"Cc1ccc([C@H]2CNS(=O)(=O)N(c3ccc4c(C#N)nccc4c3)C2)cc1 (single isomer, unassigned) [Compound 18]",20
5,"CC1CCN(c2ccc3c(C#N)nccc3c2)S(=O)(=O)N1 (racemic) [Compound 17, 6-(5-methyl-1,1-dioxido-1,2,6-thiadiazinan-2-yl)isoquinoline-1-carbonitrile]",16
6,N#Cc1nccc2cc(N3C[C@H](c4ccccc4)CNS3(=O)=O)ccc12 [Compound 12],217
7,"6-[(4S)-4-(3-methylphenyl)-1,1-dioxido-1,2,6-thiadiazinan-2-yl]isoquinoline-1-carbonitrile [Compound 20]",8
8,"N#Cc1nccc2cc(N3[C@H](CCc4ccccc4)CNS3(=O)=O)ccc12 (single isomer, unassigned) [Compound 4]",22
9,"CCCC1CNS(=O)(=O)N(c2ccc3c(C#N)nccc3c2)C1 (racemic) [Compound 22, 6-(1,1-dioxido-4-propyl-1,2,6-thiadiazinan-2-yl)isoquinoline-1-carbonitrile]",569
10,"N#Cc1nccc2cc(N3[C@H](CC(F)(F)F)CNS3(=O)=O)ccc12 (single isomer, unassigned) [Compound 3]",79
11,"C[C@H]1CNS(=O)(=O)N(c2ccc3c(C#N)nccc3c2)C1 [Compound 11, 6-[(4S)-4-methyl-1,1-dioxido-1,2,6-thiadiazinan-2-yl]isoquinoline-1-carbonitrile]",687
12,"6-[(4S)-4-ethyl-1,1-dioxido-1,2,6-thiadiazinan-2-yl]isoquinoline-1-carbonitrile [Compound 21]",8
13,"C[C@H]1CCS(=O)(=O)N1c1ccc2c(C#N)nccc2c1 [Compound 8, 6-[(3S)-3-methyl-1,1-dioxido-1,2-thiazolidin-2-yl]isoquinoline-1-carbonitrile]",271
14,"Cc1ccc([C@@H]2CNS(=O)(=O)N(c3ccc4c(C#N)nccc4c3)C2)cc1 (single isomer, unassigned) [Compound 19]",177
15,"Cc1cccc(C[C@@H]2CNS(=O)(=O)N(c3ccc4c(C#N)nccc4c3)C2)c1 (single isomer, unassigned) [Compound 15]",195
16,"N#Cc1nccc2cc(N3[C@@H](c4ccc(Cl)cc4)CNS3(=O)=O)ccc12 (single isomer, unassigned) [Compound 7]",22

# Same assay, conditions: CV-1 cells transfected with human AR and ARE-luciferase; 16-18 hours incubation; luminescence; read-out: EC50 Values for Compounds 23-39 from Androgen Receptor-Mediated Transcriptional Assay
row,Compound,EC50 [nM]
1,"6-{(2R,5R)-2-[(1R)-1-hydroxyethyl]-5-methylpyrrolidin-1-yl}isoquinoline-1-carbonitrile [Compound 31]",474
